The numbers were not newly measured in US20260271921A1, “DILUTION-INDUCED RELEASE COMPOSITIONS AND METHODS OF USE THEREOF” (priority 2025, published 2026), which cites them from elsewhere.

The structures appear in SMILES notation.

For the compound `CCN(CC)c1ccc2nc3c4ccccc4c(=O)cc-3oc2c1` [Nile Red], the log partition coefficient (logP) (in general, a log measure of how a compound divides between an organic and an aqueous phase) is listed as 3.65.
